In PMC11093748, “De novo identification of CD4^+ T cell epitopes” (Nature Methods, 2024):

Test system: BDC2.5 TCR
Test: I-Ag7 SABR-II library screen, enrichment score
Assay type: cell-based, mouse
Conditions: I-Ag7 library; EXPT1 of 8 biological experiments
Summary of the method: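 NFAT–GFP Jurkat cells expressing an I-Ag7 SABR-II library of 4,075 islet-derived epitopes, CellTrace Violet-labelled, were co-incubated 16–20 h with equal numbers of TCR-expressing Jurkat cells. The top 1–2% GFP+CD69+ cells were sorted and epitopes sequenced, in triplicate. Enrichment score = measured minus expected abundance, from linear regression on unsorted library counts.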

Row | Sequence | Enrichment score
1 | AAVEEGIVAGGGVTLL | -2.818e-5
2 | AEKVRNLPAGHGLNAQ | 2.296e-5
3 | AGGVAVIKAGAATEV | -4.65e-5
4 | AKAAVEEGIVAGGGV | -0.0001132
5 | ALVREGLRNVAAGANP | -1.509e-5

Same assay, conditions: I-Ag7 library; EXPT2 of 8

Row | Sequence | Enrichment score
6 | AAVEEGIVAGGGVTLL | -9.793e-5
7 | AEKVRNLPAGHGLNAQ | 1.2173e-5
8 | AGGVAVIKAGAATEV | 5.397e-5
9 | AKAAVEEGIVAGGGV | -8.351e-5
10 | ALVREGLRNVAAGANP | -2.732e-5

Same assay, conditions: I-Ag7 library; EXPT3 of 8

Row | Sequence | Enrichment score
11 | AAVEEGIVAGGGVTLL | 0.0001628
12 | AEKVRNLPAGHGLNAQ | 6.168e-6
13 | AGGVAVIKAGAATEV | 2.078e-5
14 | AKAAVEEGIVAGGGV | -9.939e-5
15 | ALVREGLRNVAAGANP | -2.567e-5

Same assay, conditions: I-Ag7 library; EXPT4 of 8

Row | Sequence | Enrichment score
16 | AAVEEGIVAGGGVTLL | -0.0001173
17 | AEKVRNLPAGHGLNAQ | 0.0002539
18 | AGGVAVIKAGAATEV | 2.834e-5
19 | AKAAVEEGIVAGGGV | 5.807e-5
20 | ALVREGLRNVAAGANP | -1.199e-5

Same assay, conditions: I-Ag7 library; EXPT6 of 8

Row | Sequence | Enrichment score
21 | AAVEEGIVAGGGVTLL | 0.0001045
22 | AEKVRNLPAGHGLNAQ | -2.745e-5
23 | AGGVAVIKAGAATEV | -5.5015e-5
24 | AKAAVEEGIVAGGGV | 0.0001711
25 | ALVREGLRNVAAGANP | -1.468e-5

Same assay, conditions: I-Ag7 library; EXPT7 of 8

Row | Sequence | Enrichment score
26 | AAVEEGIVAGGGVTLL | -9.918e-5
27 | AEKVRNLPAGHGLNAQ | 9.062e-5
28 | AGGVAVIKAGAATEV | -7.0061e-5
29 | AKAAVEEGIVAGGGV | 8.834e-6
30 | ALVREGLRNVAAGANP | -1.252e-5

Same assay, conditions: I-Ag7 library; EXPT8 of 8

Row | Sequence | Enrichment score
31 | AAVEEGIVAGGGVTLL | -0.0001409
32 | AEKVRNLPAGHGLNAQ | 9.25e-5
33 | AGGVAVIKAGAATEV | -2.822e-5
34 | AKAAVEEGIVAGGGV | 1.023e-7
35 | ALVREGLRNVAAGANP | -2.71e-5

Same assay, conditions: I-Ag7 library; one biological experiment (Ext. Data Fig. 6B)

Row | Sequence | Enrichment score
36 | AAVEEGIVAGGGVTLL | 0.0001628
37 | AEKVRNLPAGHGLNAQ | 6.168e-6
38 | AGGVAVIKAGAATEV | 2.078e-5
39 | AKAAVEEGIVAGGGV | -9.939e-5
40 | ALVREGLRNVAAGANP | -2.567e-5

Same assay, conditions: sheet Fig 1F, whole library; independent biological experiment 1 of 8

Row | Sequence | Enrichment score EXPT1
41 | AAVEEGIVAGGGVTLL | -9.793e-5
42 | AEKVRNLPAGHGLNAQ | 1.2173e-5
43 | AGGVAVIKAGAATEV | 5.397e-5
44 | AKAAVEEGIVAGGGV | -8.351e-5
45 | ALVREGLRNVAAGANP | -2.732e-5

Same assay, conditions: sheet Fig 1F, whole library; independent biological experiment 2 of 8

Row | Sequence | Enrichment score EXPT2
46 | AAVEEGIVAGGGVTLL | -2.818e-5
47 | AEKVRNLPAGHGLNAQ | 2.296e-5
48 | AGGVAVIKAGAATEV | -4.65e-5
49 | AKAAVEEGIVAGGGV | -0.0001132
50 | ALVREGLRNVAAGANP | -1.509e-5

Same assay, conditions: sheet Fig 1F, whole library; independent biological experiment 3 of 8

Row | Sequence | Enrichment score EXPT3
51 | AAVEEGIVAGGGVTLL | 0.0001628
52 | AEKVRNLPAGHGLNAQ | 6.168e-6
53 | AGGVAVIKAGAATEV | 2.078e-5
54 | AKAAVEEGIVAGGGV | -9.939e-5
55 | ALVREGLRNVAAGANP | -2.567e-5

Same assay, conditions: sheet Fig 1F, whole library; independent biological experiment 5 of 8

Row | Sequence | Enrichment score EXPT5
56 | AAVEEGIVAGGGVTLL | 9.606e-5
57 | AEKVRNLPAGHGLNAQ | 8.842e-5
58 | AGGVAVIKAGAATEV | 9.8885e-5
59 | AKAAVEEGIVAGGGV | 0.0002581
60 | ALVREGLRNVAAGANP | -3.182e-5

Same assay, conditions: sheet Fig 1F, whole library; independent biological experiment 7 of 8

Row | Sequence | Enrichment score EXPT7
61 | AAVEEGIVAGGGVTLL | -9.918e-5
62 | AEKVRNLPAGHGLNAQ | 9.062e-5
63 | AGGVAVIKAGAATEV | -7.0061e-5
64 | AKAAVEEGIVAGGGV | 8.834e-6
65 | ALVREGLRNVAAGANP | -1.252e-5

Same assay, conditions: sheet Fig 1F, whole library; independent biological experiment 8 of 8

Row | Sequence | Enrichment score EXPT8
66 | AAVEEGIVAGGGVTLL | -0.0001409
67 | AEKVRNLPAGHGLNAQ | 9.25e-5
68 | AGGVAVIKAGAATEV | -2.822e-5
69 | AKAAVEEGIVAGGGV | 1.023e-7
70 | ALVREGLRNVAAGANP | -2.71e-5
